The test system of experiment [1] is DPPIV-deficient male Fisher rats.
Protocol: Animals: DPPIV-deficient male Fisher rats (purchased from Charles River Japan, Inc.)
Each test compound was suspended in a solution of 0.5% methyl cellulose at the doses indicated in Table 2, and then administered orally at a volume of 5 mL/kg. The vehicle control group was orally administered a solution of 0.5% methyl cellulose at a volume of 5 mL/kg.
An unanesthetized rat was lightly cut at the caudal vein with a razor blade and bled immediately before, and at 1, 3, and 5 hours after the administration of a test compound or a solution of 0.5% methyl cellulose. 250 μL of blood was collected from the rat using a heparinized capillary and transferred into a centrifugation tube. The supernatant obtained by centrifugation (at 10000 g at 4° C. for 2 minutes) was assayed for GLP-1 level using Active GLP-1 ELISA kit (Linco).
In experiment [2] the target is T1, DPPIV obtained from swine kidney (Sus scrofa, UniProt P22411).
T1 construct: DPPIV obtained from swine kidney; from tissue; host or cells: swine kidney
Kind of experiment: Assay for the DPPIV-inhibiting activity. It is filed as biochemical. The conditions noted are these: DPPIV 10 mU/mL, Gly-Pro-p-nitroanilide 0.33 mM, absorbance 405 nm. The protocol:
DPPIV obtained from swine kidney was dissolved in a reaction buffer (50 mM Tris-HCl (pH 7.4)/0.1% BSA) at a fmal concentration of 10 mU/mL. A 110 μL aliquot of this enzyme solution was added to the reaction system, and then 15 μL of an agent was added. The reaction solution was incubated at room temperature for 20 minutes. 25 μL of a solution containing 2 mM Gly-Pro-p-nitroanilide was added to the reaction solution (at the final concentration of 0.33 mM) to start the enzyme reaction. The reaction time was 20 minutes. 25 μL of 1N phosphate solution was added to stop the reaction. […] The degree of inhibition to the enzyme reaction was determined, and IC50 was computed based on the absorbance.

Structures can show the parent of a compound that is named as a salt. Where two headings read alike, the source gives them in different places.

T1 sequence (P22411 whole entry): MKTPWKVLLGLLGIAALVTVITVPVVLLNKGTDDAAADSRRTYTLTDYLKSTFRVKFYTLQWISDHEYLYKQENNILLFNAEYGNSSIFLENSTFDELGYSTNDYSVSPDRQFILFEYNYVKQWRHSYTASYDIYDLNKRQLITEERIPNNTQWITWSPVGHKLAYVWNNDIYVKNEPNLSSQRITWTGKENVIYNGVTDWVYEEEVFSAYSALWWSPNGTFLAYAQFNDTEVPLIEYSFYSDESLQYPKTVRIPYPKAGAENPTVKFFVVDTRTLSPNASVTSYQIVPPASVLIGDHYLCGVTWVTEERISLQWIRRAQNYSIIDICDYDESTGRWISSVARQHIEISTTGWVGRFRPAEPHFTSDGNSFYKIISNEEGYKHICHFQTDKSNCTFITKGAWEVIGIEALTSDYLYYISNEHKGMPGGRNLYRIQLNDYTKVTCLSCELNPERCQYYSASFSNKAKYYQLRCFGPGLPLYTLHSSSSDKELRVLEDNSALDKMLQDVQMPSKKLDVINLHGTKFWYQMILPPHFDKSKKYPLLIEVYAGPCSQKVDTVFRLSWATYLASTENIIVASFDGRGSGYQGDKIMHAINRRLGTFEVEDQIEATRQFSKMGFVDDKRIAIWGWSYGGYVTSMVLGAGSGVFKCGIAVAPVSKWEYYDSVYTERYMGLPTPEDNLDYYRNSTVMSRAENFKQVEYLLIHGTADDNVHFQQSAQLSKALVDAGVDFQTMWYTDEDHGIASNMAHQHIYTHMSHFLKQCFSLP

As for `CCCCNC(=N)NC(=N)N` [Buformin, buformin], the “GLP-1 concentration at each time point (hr) after oral administration (% of Pre)” value (from here on “GLP-1 concentration … (% of Pre)”) in experiment [1] (30 mg/kg p.o., 0 hr) is 100 ± 0.0 % of Pre; in experiment [1] (30 mg/kg p.o., 1 hr) it was 118.7 ± 9.3 % of Pre; in experiment [1] (30 mg/kg p.o., 3 hr) it was 122.7 ± 7.1 % of Pre; in experiment [1] (30 mg/kg p.o., 5 hr), 114.6 ± 4.4 % of Pre; in experiment [1] (100 mg/kg p.o., 0 hr) it was 100 ± 0.0 % of Pre; in experiment [1] (100 mg/kg p.o., 1 hr) it was 163.6 ± 19.6 % of Pre. Moreover, the “GLP-1 concentration … (% of Pre)” value in experiment [1] (100 mg/kg p.o., 1 hr, listed as buformin) is “significantly elevated”; in experiment [1] (100 mg/kg p.o., 3 hr), 171.2 ± 9.1 % of Pre; in experiment [1] (100 mg/kg p.o., 5 hr), 195.8 ± 36.6 % of Pre; in experiment [1] (100 mg/kg p.o., 5 hr, listed as buformin) it was “significantly elevated”.
`[H]/N=C(/N)N/C(=N/[H])NCCc1ccccc1` [Phenformin, phenformin]: the “GLP-1 concentration … (% of Pre)” value in experiment [1] (30 mg/kg p.o., 0 hr) is recorded as 100 ± 0.0 % of Pre; in experiment [1] (30 mg/kg p.o., 1 hr) it was 125.3 ± 10.7 % of Pre; in experiment [1] (30 mg/kg p.o., 3 hr), 120.0 ± 7.2 % of Pre; in experiment [1] (30 mg/kg p.o., 5 hr) it was 126.7 ± 10.7 % of Pre; in experiment [1] (100 mg/kg p.o., 0 hr), 100 ± 0.0 % of Pre; in experiment [1] (100 mg/kg p.o., 1 hr), 316.9 ± 26.4 % of Pre. The “GLP-1 concentration … (% of Pre)” value in experiment [1] (100 mg/kg p.o., 1 hr, listed as phenformin) was “significantly elevated”; in experiment [1] (100 mg/kg p.o., 3 hr), 330.7 ± 112.4 % of Pre; in experiment [1] (100 mg/kg p.o., 3 hr, listed as phenformin), “significantly elevated”; in experiment [1] (100 mg/kg p.o., 5 hr) it was 236.5 ± 20.5 % of Pre; in experiment [1] (100 mg/kg p.o., 5 hr, listed as phenformin), “significantly elevated”.
Consider `CC#CCn1c(N2CCNCC2)nc2c1c(=O)n(CC#N)c(=O)n2C` [Example 359, [7-(2-Butynyl)-3-methyl-2,6-dioxo-8-(piperazin-1-yl)-2,3,6,7-tetrahydropurin-1-yl]acetonitrile trifluoroacetate], for which half-maximal inhibition in experiment [2] (IC50 (nM)) (IC50) required 353 nM.
With `CC#CCn1c(N2CCNCC2)nc2c1c(=O)[nH]c(=O)n2C` [Example 354, 7-(2-Butynyl)-3-methyl-8-(piperazin-1-yl)-3,7-dihydropurine-2,6-dione], in experiment [2] (IC50 (nM)), the IC50 (in general, the point on the concentration scale where inhibition reaches its midpoint) stood at 285 nM.
For the compound `CC#CCn1c(N2CCNCC2)nc2nc(OC(C)C(=O)OCC)n(C)c(=O)c21` (stereo not shown) [Example 9, Ethyl 2-[7-(2-butynyl)-1-methyl-6-oxo-8-(piperazin-1-yl)-6,7-dihydro-1H-purin-2-yloxy]propionate], in experiment [2] (read-out: IC50), the 50% inhibitory concentration (IC50) stood at 141 nM.
Compound `CC#CCn1c(N2CCNCC2)nc2c1c(=O)n(CCc1ccccc1)c(=O)n2CC(=O)OCC` [Example 416, Ethyl[7-(2-butynyl)-2,6-dioxo-1-(2-phenethyl)-8-(piperazin-1-yl)-1,2,6,7-tetrahydropurin-3-yl]acetate hydrochloride] displayed an IC50 in experiment [2] (IC50 (nM)) of 4.02 nM.
For the compound `CC#CCn1c(N2CCNCC2)nc2nc(OCC)n(C)c(=O)c21` [Example 12, 7-(2-Butynyl)-2-ethoxy-1-methyl-8-(piperazin-1-yl)-1,7-dihydropurin-6-one], the IC50 in experiment [2] (read-out: IC50) was determined as 183 nM.
On to `CC#CCn1c(N2CCNCC2)nc2nc(OCC(=O)OCC)n(C)c(=O)c21` [Example 13, Ethyl[7-(2-butynyl)-1-methyl-6-oxo-8-(piperazin-1-yl)-6,7-dihydro-1H-purin-2-yloxy]acetate], for which the IC50 in experiment [2] (read-out: IC50) stood at 125 nM.
On the same count and under the same terms, the value for `CC#CCn1c(N2CCNCC2)nc2c1c(=O)n(C)c(=O)n2C1CCNC1=O` (stereo not shown) [Example 410, 7-(2-Butynyl)-1-methyl-3-(2-oxopyrrolidin-3-yl)-8-(piperazin-1-yl)-3,7-dihydropurine-2,6-dione hydrochloride] was 64.9 nM.

Source of the values: patent publication US20060094722A1 (Eisai Co., Ltd., priority 2002, published 2006).
